Test results as given in patent publication US7138411B2, “Substituted benzopyran derivatives for the treatment of inflammation” (G.D. Searle & Co., priority 1997, dated 2006).

Tests used:
COX-2 [1] = biological target: T1, COX-2 (UniProt P35354); test: Fast assay for COX-2 activity (PGE2 ELISA); type: biochemical, human or murine; conditions: fast assay: 10 min pre-incubation at 25° C., reaction stopped after two minutes, pH 7.5
T1 sequence (P35354 1-604): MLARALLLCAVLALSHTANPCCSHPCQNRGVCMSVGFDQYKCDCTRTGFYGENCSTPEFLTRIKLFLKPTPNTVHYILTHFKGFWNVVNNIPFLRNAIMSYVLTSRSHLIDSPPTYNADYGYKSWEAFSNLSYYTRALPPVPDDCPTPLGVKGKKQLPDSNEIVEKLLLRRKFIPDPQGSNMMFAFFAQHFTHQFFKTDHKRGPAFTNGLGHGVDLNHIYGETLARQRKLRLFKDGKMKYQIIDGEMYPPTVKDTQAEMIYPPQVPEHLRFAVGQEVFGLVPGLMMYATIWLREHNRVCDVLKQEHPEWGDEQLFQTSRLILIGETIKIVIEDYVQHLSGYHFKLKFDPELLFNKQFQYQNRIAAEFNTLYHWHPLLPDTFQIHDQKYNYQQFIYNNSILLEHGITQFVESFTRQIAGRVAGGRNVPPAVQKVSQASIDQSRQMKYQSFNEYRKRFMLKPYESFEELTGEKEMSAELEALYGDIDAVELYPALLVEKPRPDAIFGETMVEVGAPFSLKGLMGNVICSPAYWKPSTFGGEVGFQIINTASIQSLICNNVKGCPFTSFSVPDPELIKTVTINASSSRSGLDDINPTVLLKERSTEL

COX-2 [2] = biological target: T1, COX-2; test: Assay for COX-2 activity (PGE2 ELISA); conditions: read-out: COX-2 IC50; 10–20 minutes pre-incubation, reaction stopped after ten minutes, pH 8.0
COX-1 = COX-1 (UniProt P23219); test: Assay for COX-1 activity (PGE2 ELISA); conditions: read-out: COX-1 IC50; 10–20 minutes pre-incubation, reaction stopped after ten minutes, pH 8.0

SMILES | IC50 (COX-2 [1]) [µM] | melting point | IC50 (COX-2 [2]) [µM] | IC50 (COX-1) [µM]
O=C(O)C1=Cc2ccc(Oc3ccccc3)cc2OC1C(F)(F)F (stereo not shown) [Example 176, 7-Phenoxy-2-(trifluoromethyl)-2H-1-benzopyran-3-carboxylic acid] | < 0.1 | 180 to 181 °C | 2 | 3.3
CC(C)(CO)c1cc2c(cc1Cl)C=C(C(=O)O)C(C(F)(F)F)O2 (stereo not shown) [Example 178, 6-Chloro-7-(2-hydroxy-1,1-dimethylethyl)-2-(trifluoromethyl)-2H-1-benzopyran-3-carboxylic acid] | 8.4 | 203.8 to 205.4 °C | 14.7 | > 100
O=C(O)C1=Cc2cc(Cl)c(I)cc2OC1C(F)(F)F (stereo not shown) [Example 180, 6-Chloro-7-iodo-2-(trifluoromethyl)-2H-1-benzopyran-3-carboxylic acid] | < 0.1 | 224.9 to 225.9 °C | < 0.1 | > 100
C#Cc1cc2c(cc1Cl)C=C(C(=O)O)C(C(F)(F)F)O2 (stereo not shown) [Example 181, 6-Chloro-7-ethynyl-2-(trifluoromethyl)-2H-1-benzopyran-3-carboxylic acid] | 1.5 | > 300 °C | > 100 | > 100
C=Cc1cc2c(cc1Cl)C=C(C(=O)O)C(C(F)(F)F)O2 (stereo not shown) [Example 182, 6-Chloro-7-ethenyl-2-(trifluoromethyl)-2H-1-benzopyran-3-carboxylic acid] | < 0.1 | > 200 °C (dec.) | > 100 | > 100
COc1ccc(Oc2cc3c(cc2Cl)C=C(C(=O)O)C(C(F)(F)F)O3)cc1 (stereo not shown) [Example 183, 6-Chloro-7-(4-methoxyphenoxy)-2-(trifluoromethyl)-2H-1-benzopyran-3-carboxylic acid] | < 0.1 | 213.2 to 214.3 °C | < 0.1 | 4.1
O=C(O)C1=Cc2cc(Cl)c(Oc3ccc(Cl)cc3)cc2OC1C(F)(F)F (stereo not shown) [Example 184, 6-Chloro-7-(4-chlorophenoxy)-2-(trifluoromethyl)-2H-1-benzopyran-3-carboxylic acid] | < 0.1 | 205.4 to 206.5 °C | < 0.1 | 1.3
N#Cc1ccc(Oc2cc3c(cc2Cl)C=C(C(=O)O)C(C(F)(F)F)O3)cc1 (stereo not shown) [Example 185, 6-Chloro-7-(4-cyanophenoxy)-2-(trifluoromethyl)-2H-1-benzopyran-3-carboxylic acid] | < 0.1 | 212.5 to 215.7 °C | < 0.1 | > 100
Cc1cccc(C)c1Oc1cc2c(cc1Cl)C=C(C(=O)O)C(C(F)(F)F)O2 (stereo not shown) [Example 190, 6-Chloro-7-(2,6-dimethylphenoxy)-2-(trifluoromethyl)-2H-1-benzopyran-3-carboxylic acid] | 0.5 | 252.7 to 258.6 °C | 0.5 | 37.4
COc1ccc(Sc2cc3c(cc2Cl)C=C(C(=O)O)C(C(F)(F)F)O3)cc1 (stereo not shown) [Example 191, 6-Chloro-7-[(4-methoxyphenyl)thio]-2-(trifluoromethyl)-2H-1-benzopyran-3-carboxylic acid] | < 0.1 | 239.4 to 242.3 °C | 42.2 | > 100
O=C(O)C1=Cc2cc(Cl)c(Sc3ccc(Cl)cc3)cc2OC1C(F)(F)F (stereo not shown) [Example 192, 6-Chloro-7-[(4-chlorophenyl)thio]-2-(trifluoromethyl)-2H-1-benzopyran-3-carboxylic acid] | < 0.1 | 251.7 to 253.3 °C | 1.4 | 12.3
O=C(O)C1=Cc2cc(Cl)c([S+]([O-])c3ccc(Cl)cc3)cc2OC1C(F)(F)F (stereo not shown) [Example 193, 6-Chloro-7-[(4-chlorophenyl)sulfinyl]-2-(trifluoromethyl)-2H-1-benzopyran-3-carboxylic acid] | 1.2 | 213.8 to 217.4 °C | > 100 | > 100
O=C(O)C1=Cc2cc(Cl)c(Sc3ccccc3)cc2OC1C(F)(F)F (stereo not shown) [Example 195, 6-Chloro-7-(phenylthio)-2-(trifluoromethyl)-2H-1-benzopyran-3-carboxylic acid] | < 0.1 | 271.7 to 274.4 °C | < 0.1 | 2.6
O=C(O)C1=Cc2cc(Cl)c(Oc3ccc(F)c(F)c3)cc2OC1C(F)(F)F (stereo not shown) [Example 198, 6-Chloro-7-(3,4-difluorophenoxy)-2-(trifluoromethyl)-2H-1-benzopyran-3-carboxylic acid] | < 0.1 | 191.9 to 193.1 °C | < 0.1 | 12.4

Continued, values first:

IC50 (COX-2 [1]) [µM] | melting point | IC50 (COX-2 [2]) [µM] | IC50 (COX-1) [µM] | SMILES
< 0.1 | 129.3 to 132.4 °C | < 0.1 | < 0.1 | O=C(O)C1=Cc2cc(SC(F)(F)F)ccc2SC1C(F)(F)F (stereo not shown) [Example 155, 2-(Trifluoromethyl)-6-[(trifluoromethyl)thio]-2H-1-benzothiopyran-3-carboxylic acid]
15.6 | 228.9 to 230 °C | 16 | > 100 | CC(C)(CO)c1ccc2c(c1)OC(C(F)(F)F)C(C(=O)O)=C2 (stereo not shown) [Example 179, 7-(2-Hydroxy-1,1-dimethylethyl)-2-(trifluoromethyl)-2H-1-benzopyran-3-carboxylic acid]
< 0.1 | 230.9 to 232 °C | 3.4 | 32.8 | O=C(O)C1=Cc2cc(Cl)c(Oc3ccc(C(F)(F)F)cc3)cc2OC1C(F)(F)F (stereo not shown) [Example 186, 6-Chloro-2-(trifluoromethyl)-7-[4-(trifluoromethyl)phenoxy]-2H-1-beazopyran-3-carboxylic acid]
2.9 | 198 to 199.2 °C | 33.7 | > 100 | O=C(O)C1=Cc2cc(Cl)c(Oc3ccc(OC(F)(F)F)cc3)cc2OC1C(F)(F)F (stereo not shown) [Example 187, 6-Chloro-2-(trifluoromethyl)-7-[4-(trifluoromethoxy)phenoxy]-2H-1-benzopyran-3-carboxlic acid]
< 0.1 | 252.6 to 254.8 °C | 1.2 | 44.8 | O=C(O)C1=Cc2cc(Cl)c(Oc3ccc4cc(Br)ccc4c3)cc2OC1C(F)(F)F (stereo not shown) [Example 189, 7-[(6-Bromo-2-naphthalenyl)oxy]-6-chloro-2-(trifluoromethyl)-2H-1-benzopyran-3-carboxylic acid]
< 0.1 | 174.1 to 176.1 °C | 9.5 | 30.3 | O=C(O)C1=Cc2cc(Cl)c(Oc3cccc(Cl)c3)cc2OC1C(F)(F)F (stereo not shown) [Example 196, 6-Chloro-7-(3-chlorophenoxy)-2-(trifluoromethyl)-2H-1-benzopyran-3-carboxylic acid]
< 0.1 | 233 to 234 °C | < 0.1 | 0.4 | O=C(O)C1=Cc2cc(Cl)c(Oc3ccc(Cl)cc3Cl)cc2OC1C(F)(F)F (stereo not shown) [Example 197, 6-Chloro-7-(2,4-dichlorophenoxy)-2-(trifluoromethyl)-2H-1-benzopyran-3-carboxylic acid]
< 0.1 | 213.4 to 216.2 °C | < 0.1 | 28.5 | O=C(O)C1=Cc2cc(Cl)c(Oc3cccnc3Cl)cc2OC1C(F)(F)F (stereo not shown) [Example 200, 6-Chloro-7-[(2-chloro-3-pyridinyl)oxy]-2-(trifluoromethyl)-2H-1-benzopyran-3-carboxylic acid]
